Source: patent publication US11179397B2, “Imidazopyrimidine derivatives” (Gilead Sciences, Inc., priority 2018, dated 2021)
Where two headings read alike, the source gives them in different places.

What was measured:
[1] = biological target: SHP-2 full length protein (Homo sapiens (Human), UniProt Q06124); assay: SHP-2 biochemical DiFMUP pseudosubstrate-fluorogenic assay; conditions: 0.2 nM SHP-2, 1 μM IRS-1 activator peptide, 50 μM DiFMUP; read-out: SHP2 IC50
Procedure: SHP-2 Biochemical Assay Materials Recombinant SHP-2 full length protein was generated in house. SHP-2 protein tyrosine phosphatase (PTP) domain protein (Catalog number SPR0217-20 ug), NaCl (Catalog number S6546-1L), and KCl (Catalog number 60142-500 mL) were purchased from Sigma-Aldrich (St. Louis, Mo.). IRS-1_[…](dPEG8)[…] peptide […]) was custom made by AnaSpec (Fremont, Calif.). DiFMUP substrate (Catalog number D6567), EDTA (Catalog number E177-500 mL), DTT (Catalog number P2325), and 384-well black polystyrene non-binding surface (Catalog number 3820) were purchased from Fisher Scientific (Hanover Park, Ill.). HEPES (Catalog number 15630-080) was purchased from Life Technologies (Pleasanton, Calif.), and Tween-20 (Catalog number 95059-250) was purchased from VWR (Radnor, Pa.). Method Inhibition of SHP-2 activity by small molecule inhibitors was monitored by a biochemical DiFMUP pseudosubstrate-fluorogenic assay. […] The reaction mix was added to the 384-well non-binding plate which had been pre-spotted with 1:3 serial diluted compounds from 10,000-0.005 nM, and incubated at room temperature for 90 min. DiFMUP substrate at final concentration of 50 μM was then added to the wells and incubated for additional 30 min at room temperature. The final reaction volume was 20 μl/well. […] The inhibitor dose response curves were generated using normalized IC50 regression curve fitting by in house dose response analysis tools. The wells with DMSO vehicle were used as controls (100% signal). The percent (%) control of SHP-2 compound was calculated as: (Compound well fluorescence counts/DMSO fluorescence counts)×100%.

NCI-H358 cells = assay: NCI-H358 3D tumor spheroid growth inhibition; assay type: cell-based; conditions: 3D spheroids, 7 days, 3D CellTiter Glo, cellular IC50 designated EC50, read-out: H358 EC50
From the text: SHP-2 Cell Based Assay: […] Materials NCI-H358 cell line was purchased from [NT] number ATCC CRL-5807) (Manassas, Va.). RPMI-1640 (Catalog number 10-040-CM) was from Corning Cellgro (Manassas, Va.), Fetal Bovine Serum (FBS) (Catalog number SH30071.03) was from HyClone (Logan, Utanh), and 100× Penicillin/Streptomycin/L-Glutamine stock (Catalog no. 30-009-CI) and 384-well ULA plates (Catalog number 3830) were from Corning (Fremont, Calif.). Method […] At the day of assay, the cells were trypsinized and seeded at 1000 cells/70 μl/well in 384-well ULA plates and incubated at 37° C. incubator with 5% CO2 to allow spheroids to form. […] The plates were incubated for additional 7 days. Then 35 μl of medium from each well was removed, and replaced with 35 μl of 3D CellTiter Glo reagent from Promega. The wells were mixed by pipetting up and down with Biomek FX for 15 times to induce cell lysis and the plates were incubated at room temperature for additional 10 min to stabilize luminescent signal. The luminescence was then read by Envision. The inhibitor dose response curves were generated using normalized cellular IC50 (designated as EC50 in all FIGURES to distinguish from biochemical IC50s) by in house dose response analyses tools. The wells with DMSO vehicle were used as negative controls (0% inhibition). The % inhibition of SHP-2 compounds was calculated as: 100-[(Compound well luminescence counts/DMSO luminescence counts)×100%].

Chain of SHP-2 full length protein (Q06124 whole entry): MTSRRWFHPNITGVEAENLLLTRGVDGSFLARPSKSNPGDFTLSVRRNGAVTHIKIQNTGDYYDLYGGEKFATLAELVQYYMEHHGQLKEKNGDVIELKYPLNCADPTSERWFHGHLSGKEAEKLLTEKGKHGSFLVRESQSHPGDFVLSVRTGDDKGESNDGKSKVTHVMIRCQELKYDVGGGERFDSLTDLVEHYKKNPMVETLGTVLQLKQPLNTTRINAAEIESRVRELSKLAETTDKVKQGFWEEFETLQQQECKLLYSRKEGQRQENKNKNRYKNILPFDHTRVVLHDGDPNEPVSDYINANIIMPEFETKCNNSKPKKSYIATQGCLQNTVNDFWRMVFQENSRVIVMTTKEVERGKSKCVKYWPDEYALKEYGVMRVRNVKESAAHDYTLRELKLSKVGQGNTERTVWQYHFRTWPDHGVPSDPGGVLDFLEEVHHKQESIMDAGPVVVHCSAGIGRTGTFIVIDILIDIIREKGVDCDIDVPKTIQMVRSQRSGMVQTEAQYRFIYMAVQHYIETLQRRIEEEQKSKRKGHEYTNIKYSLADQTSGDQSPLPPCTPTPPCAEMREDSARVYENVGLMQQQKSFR

Row | Compound | IC50 [1] [µM] | EC50 (NCI-H358 cells) [µM] | EC50 (NCI-H358 cells; Homo sapiens, NCI-H358, 168 h) [µM]
1 | Cc1nc(N2CCC3(CCC[C@H]3N)CC2)n2ccnc2c1-c1cccc(Cl)c1Cl (single isomer, unassigned) [Example 10] | 0.052 | 0.97 | –
2 | Cc1nc(N2CCC3(CCC[C@H]3N)CC2)n2ccnc2c1-c1cccc(Cl)c1Cl (single isomer, unassigned) [Example 11] | 0.0036 | 0.06 | –
3 | Cc1nc(N2CCC3(CC2)CO[C@@H](C)[C@H]3N)n2ccnc2c1-c1cccc(Cl)c1Cl [Example 1, (3S,4S)-8-(8-(2,3-dichlorophenyl)-7-methylimidazo[1,2-c]pyrimidin-5-yl)-3-methyl-2-oxa-8-azaspiro[4.5]decan-4-amine] | 0.0028 | – | 0.059
4 | Cc1nc(N2CCC3(CCC[C@H]3N)CC2)n2ccnc2c1-c1cccc2[nH]ccc12 [Example 2, (R)-8-(8-(1H-indol-4-yl)-7-methylimidazo[1,2-c]pyrimidin-5-yl)-8-azaspiro[4.5]decan-1-amine] | 0.047 | – | 0.59
5 | Cc1nc(N2CCC3(CCC[C@H]3N)CC2)n2ccnc2c1-c1ccccc1 [Example 5, (R)-8-(7-methyl-8-phenylimidazo[1,2-c]pyrimidin-5-yl)-8-azaspiro[4.5]decan-1-amine] | 0.09 | – | 0.67
6 | Cc1nc(N2CCC3(CCC[C@H]3N)CC2)n2ccnc2c1-c1cccc(C(F)(F)F)c1 [Example 7, (R)-8-(7-methyl-8-(3-(trifluoromethyl)phenyl)imidazo[1,2-c]pyrimidin-5-yl)-8-azaspiro[4.5]decan-1-amine] | 1.3 | – | > 12.5
7 | Cc1nc(N2CCC3(CCC[C@H]3N)CC2)n2ccnc2c1-c1cccc(Cl)c1Cl [Example 9, (R)-8-(8-(2,3-dichlorophenyl)-7-methylimidazo[1,2-c]pyrimidin-5-yl)-8-azaspiro[4.5]decan-1-amine] | 0.0041 | – | 0.12
8 | Cc1nc(N2CCC3(CCC[C@H]3N)CC2)n2ccnc2c1-c1sccc1Cl [Example 12, (R)-8-(8-(3-chlorothiophen-2-yl)-7-methylimidazo[1,2-c]pyrimidin-5-yl)-8-azaspiro[4.5]decan-1-amine] | 0.09 | – | 0.42
9 | Cc1nc(N2CCC3(CCC[C@H]3N)CC2)n2ccnc2c1-c1cnn(C)c1C [Example 13, (R)-8-(8-(1,5-dimethyl-1H-pyrazol-4-yl)-7-methylimidazo[1,2-c]pyrimidin-5-yl)-8-azaspiro[4.5]decan-1-amine] | 1 | – | 3.3
10 | Cc1nc(N2CCC3(CCC[C@H]3N)CC2)n2ccnc2c1-c1cnc2ccccn12 [Example 15, (R)-8-(8-(imidazo[1,2-a]pyridin-3-yl)-7-methylimidazo[1,2-c]pyrimidin-5-yl)-8-azaspiro[4.5]decan-1-amine] | 0.35 | – | 3.2
11 | Cc1nc(N2CCC3(CCC[C@H]3N)CC2)n2ccnc2c1Sc1ccnc(N)c1Cl [Example 18, (R)-8-(8-((2-amino-3-chloropyridin-4-yl)thio)-7-methylimidazo[1,2-c]pyrimidin-5-yl)-8-azaspiro[4.5]decan-1-amine] | 0.0056 | – | 0.075
12 | Cc1nc(N2CCC3(CCC[C@H]3N)CC2)n2ccnc2c1-c1cccc(Cl)c1 [Example 23, (R)-8-(8-(3-chlorophenyl)-7-methylimidazo[1,2-c]pyrimidin-5-yl)-8-azaspiro[4.5]decan-1-amine] | 0.16 | – | 1.5
13 | Cc1nc(N2CCC3(CCC[C@H]3N)CC2)n2ccnc2c1-c1ccc(Cl)c(Cl)c1 [Example 25, (R)-8-(8-(3,4-dichlorophenyl)-7-methylimidazo[1,2-c]pyrimidin-5-yl)-8-azaspiro[4.5]decan-1-amine] | 0.095 | – | 1.5
14 | Cc1nc(N2CCC3(CCC[C@H]3N)CC2)n2ccnc2c1-c1ccc(Cl)cc1Cl [Example 26, (R)-8-(8-(2,4-dichlorophenyl)-7-methylimidazo[1,2-c]pyrimidin-5-yl)-8-azaspiro[4.5]decan-1-amine] | 0.025 | – | 0.36
15 | Cc1nc(N2CCC3(CCC[C@H]3N)CC2)n2ccnc2c1-c1ccnc(F)c1Cl [Example 28, (R)-8-(8-(3-chloro-2-fluoropyridin-4-yl)-7-methylimidazo[1,2-c]pyrimidin-5-yl)-8-azaspiro[4.5]decan-1-amine] | 0.074 | – | 0.38
16 | Cc1nc(N2CCC3(CCC[C@H]3N)CC2)n2ccnc2c1-c1ccnc(N)c1Cl [Example 29, (R)-8-(8-(2-amino-3-chloropyridin-4-yl)-7-methylimidazo[1,2-c]pyrimidin-5-yl)-8-azaspiro[4.5]decan-1-amine] | 1.3 | – | 5.5
17 | C[C@@H]1OCC2(CCN(c3ncc(Sc4ccnc(N)c4Cl)c4nccn34)CC2)[C@@H]1N [Example 31, (3S,4S)-8-(8-((2-amino-3-chloropyridin-4-yl)thio)imidazo[1,2-c]pyrimidin-5-yl)-3-methyl-2-oxa-8-azaspiro[4.5]decan-4-amine] | 0.005 | – | 0.053
18 | Cc1nc(N2CCC3(CC2)C[C@@H](O)C[C@H]3N)n2ccnc2c1-c1cccc(Cl)c1Cl [Example 33, (2R,4R)-4-amino-8-(8-(2,3-dichlorophenyl)-7-methylimidazo[1,2-c]pyrimidin-5-yl)-8-azaspiro[4.5]decan-2-ol] | 0.0031 | – | 0.032
19 | N[C@@H]1C[C@H](O)CC12CCN(c1ncc(Sc3cccc(Cl)c3Cl)c3nccn13)CC2 [Example 35, (2R,4R)-4-amino-8-(8-((2,3-dichlorophenyl)thio)imidazo[1,2-c]pyrimidin-5-yl)-8-azaspiro[4.5]decan-2-ol] | 0.0012 | – | 0.032
20 | C[C@@H]1OCC2(CCN(c3ncc(Sc4cc(N)ncc4C(F)(F)F)c4nccn34)CC2)[C@@H]1N [Example 38, (3S,4S)-8-(8-((2-amino-5-(trifluoromethyl)pyridin-4-yl)thio)imidazo[1,2-c]pyrimidin-5-yl)-3-methyl-2-oxa-8-azaspiro[4.5]decan-4-amine] | 0.0059 | – | 0.059
21 | NC1CC2CN(c3ncc(Sc4cccc(Cl)c4Cl)c4nccn34)CC2C1 (centres unmarked) [Example 40, 2-(8-((2,3-dichlorophenyl)thio)imidazo[1,2-c]pyrimidin-5-yl)octahydrocyclopenta[c]pyrrol-5-amine] | 0.19 | – | 3.2
22 | NCC1CC2CN(c3ncc(Sc4cccc(Cl)c4Cl)c4nccn34)CC2C1 (centres unmarked) [Example 41, (2-(8-((2,3-dichlorophenyl)thio)imidazo[1,2-c]pyrimidin-5-yl)octahydrocyclopenta[c]pyrrol-5-yl)methanamine] | 0.15 | – | 3.2
23 | NC[C@H]1[C@H]2CN(c3ncc(Sc4cccc(Cl)c4Cl)c4nccn34)C[C@@H]12 [Example 42, ((1R,5S,6r)-3-(8-((2,3-dichlorophenyl)thio)imidazo[1,2-c]pyrimidin-5-yl)-3-azabicyclo[3.1.0]hexan-6-yl)methanamine] | 0.08 | – | 1.3
24 | N[C@@H]1CCCC12CCN(c1ncc(Sc3cccc(Cl)c3Cl)c3nccn13)CC2 [Example 44, (R)-8-(8-((2,3-dichlorophenyl)thio)imidazo[1,2-c]pyrimidin-5-yl)-8-azaspiro[4.5]decan-1-amine] | 0.0028 | – | 0.13
25 | Cc1nc(N2CCC3(CC2)Cc2cc(F)ccc2[C@H]3N)n2ccnc2c1-c1cccc(Cl)c1Cl [Example 133, (S)-1′-(8-(2,3-dichlorophenyl)-7-methylimidazo[1,2-c]pyrimidin-5-yl)-5-fluoro-1,3-dihydrospiro[indene-2,4′-piperidin]-1-amine] | – | – | 0.021
26 | Nc1cccc(Sc2cnc(N3CCC4(CC3)Cc3ccccc3[C@H]4N)n3ccnc23)c1Cl [Example 137, (S)-1′-(8-((3-amino-2-chlorophenyl)thio)imidazo[1,2-c]pyrimidin-5-yl)-1,3-dihydrospiro[indene-2,4′-piperidin]-1-amine] | – | – | 0.012
